From BindingDB's records for doi:10.1016/j.ejmech.2008.07.020 (Jadavpur University, 2009)

Molecular target: Reverse transcriptase/RNaseH (Human immunodeficiency virus 1, UniProt Q72547)
Test: Inhibition of HIV1 reverse transcriptase

IC50 | Compound
182 µM | CCCC1CN(CCC)Cc2cccc3[nH]c(=O)n1c23 (stereo not drawn)
849 µM | C[C@H]1Cn2c(=O)[nH]c3ccc(N)c(c32)CN1CC1CC1
100 µM | CCCCN1Cc2cccc3[nH]c(=O)n(c23)C[C@@H]1C
